Measurements from paper PMC11435058, “Synthesis of New Thiazole-Privileged Chalcones as Tubulin Polymerization Inhibitors with Potential Anticancer Activities” (Pharmaceuticals, 2024).

Experiments:
Assay in all cases: NCI-60 anticancer screen (SRB; single dose and five doses)
UACC-257 = settings: Homo sapiens; for activity at 10 µM: UACC-257, 48 h, read-out: Growth Percentage
786-0 = settings: Homo sapiens; for activity at 10 µM: 786-0, 48 h, read-out: Growth Percentage
HCC-2998 = settings: for activity at 10 µM: HCC 2998, 48 h, read-out: Growth Percentage
UACC-62 = settings: Homo sapiens; for activity at 10 µM: UACC-62, 48 h, read-out: Growth Percentage
HCT-15 = settings: Homo sapiens; for activity at 10 µM: HCT-15, 48 h, read-out: Growth Percentage
MOLT-4 = settings: Homo sapiens; for activity at 10 µM: MOLT-4, 48 h, read-out: Growth Percentage
OVCAR-8 = settings: Homo sapiens; for activity at 10 µM: OVCAR-8, 48 h, read-out: Growth Percentage
MDA-MB-468 = format: cell-based, human; settings: for activity at 10 µM: 48 h, MDA-MB-468, dose of 10 μM, read-out: Growth Percentage
Experimental: The methodology of the NCI anticancer screening has been described in detail elsewhere (http://www.dtp.nci.nih.gov). For detailed information, see Appendix A in the Supplementary Materials.
4.2.1. Screening of the anticancer activity against a panel of 60 cell Lines.
The methodology of the NCI anticancer screening has been described in detail elsewhere (http://www.dtp.nci.nih.gov.) Briefly, the primary anticancer assay was performed at approximately 60 human tumor cell lines panel derived from nine neoplastic diseases, in accordance with the protocol of the Drug Evaluation Branch, National Cancer Institute, Bethesda. Tested compounds were added to the culture at a single concentration (10μM) and the cultures were incubated for 48 h. End -point determinations were made with a protein binding dye, SRB. Results for each tested compound was reported as the percent of growth of the treated cells when compared to the untreated control cells. The percentage growth was evaluated spectrophotometrically versus controls not treated with test agents. […]

NCI-H23 = settings: Homo sapiens; for activity at 10 µM: NCI-H23, 48 h, read-out: Growth Percentage
U251 = settings: Homo sapiens; for activity at 10 µM: U-251, 48 h, read-out: Growth Percentage
T-47D = settings: Homo sapiens, T47D; for activity at 10 µM: 48 h, read-out: Growth Percentage
SK-MEL-2 = settings: Homo sapiens; for activity at 10 µM: SK-MEL-2, 48 h, read-out: Growth Percentage
MALME-3M = settings: Homo sapiens; for activity at 10 µM: 48 h, read-out: Growth Percentage
MCF7 = settings: Homo sapiens; for activity at 10 µM: MCF7, 48 h, read-out: Growth Percentage
NCI-H322M = settings: Homo sapiens; for activity at 10 µM: 48 h, read-out: Growth Percentage
LOX IMVI = settings: Homo sapiens; for activity at 10 µM: 48 h, read-out: Growth Percentage
NCI-H226 = settings: Homo sapiens; for activity at 10 µM: NCI-H226, 48 h, read-out: Growth Percentage
OVCAR-4 = settings: Homo sapiens; for activity at 10 µM: OVCAR-4, 48 h, read-out: Growth Percentage
COLO 205 = settings: Homo sapiens; for activity at 10 µM: COLO 205, 48 h, read-out: Growth Percentage
HOP-62 = settings: Homo sapiens; for activity at 10 µM: HOP-62, 48 h, read-out: Growth Percentage
BT-549 = settings: Homo sapiens; for activity at 10 µM: BT-549, 48 h, read-out: Growth Percentage
RPMI-8226 = settings: Homo sapiens; for activity at 10 µM: RPMI-8226, 48 h, read-out: Growth Percentage
M14 = settings: Homo sapiens; for activity at 10 µM: M14, 48 h, read-out: Growth Percentage
TK-10 = settings: Homo sapiens; for activity at 10 µM: TK-10, 48 h, read-out: Growth Percentage
SF-295 = settings: Homo sapiens; for activity at 10 µM: SF-295, 48 h, read-out: Growth Percentage

Cc1[nH]c(=S)sc1C(=O)/C=C/c1ccc(Br)cc1 [2g, (E)-3-(4-Bromophenyl)-1-(4-Methyl-2-Thioxo-2,3-Dihydrothiazol-5-yl)Prop-2-En-1-One] showed a GI50 (UACC-257; UACC-257) of 11.3 µM, an activity at 10 µM (UACC-257) of 69.1% and a CC50 (UACC-257; UACC-257, read-out: LC50) of 51.9 µM. For the same compound, the IC (TGI) (UACC-257; UACC-257, read-out: TGI) was 24.2 µM, the GI50 (786-0; 786-0) was 3.33 µM and the activity at 10 µM (786-0) was 25%. For the same compound, the CC50 (786-0; 786-0, read-out: LC50) was 41.8 µM, the IC (TGI) (786-0; 786-0, read-out: TGI) was 13.3 µM and the GI50 (HCC-2998; Homo sapiens, HCC 2998) was 2720 nM. It also gave an activity at 10 µM (HCC-2998; Homo sapiens) of 3.23%, a CC50 (HCC-2998; Homo sapiens, HCC 2998, read-out: LC50) of 31.6 µM and a TGI (HCC-2998; five-dose, Colon Cancer HCC-2998) of 9.62 µM. For the same compound, the GI50 (UACC-62; UACC-62) was 5.17 µM, the activity at 10 µM (UACC-62) was 46.8% and the IC (TGI) (UACC-62; UACC-62, read-out: TGI) was 18.6 µM. For the same compound, the GI50 (HCT-15; HCT-15) was 2660 nM, the activity at 10 µM (HCT-15) was 5.48% and the CC50 (HCT-15; HCT-15, read-out: LC50) was 36.4 µM. The IC (TGI) (HCT-15; HCT-15, read-out: TGI) was 10 µM, the GI50 (MOLT-4; MOLT-4) was 3.57 µM and the activity at 10 µM (MOLT-4) was 30.2%. For the same compound, the CC50 (MOLT-4; MOLT-4, read-out: LC50) was over 100 µM, the IC (TGI) (MOLT-4; MOLT-4, read-out: TGI) was 36.6 µM and the GI50 (OVCAR-8; OVCAR-8) was 2860 nM. It also gave an activity at 10 µM (OVCAR-8) of -34.1%, a CC50 (OVCAR-8; OVCAR-8, read-out: LC50) of 37.1 µM and an IC (TGI) (OVCAR-8; OVCAR-8, read-out: TGI) of 8.77 µM. It also gave an activity at 10 µM (MDA-MB-468; Homo sapiens) of -4.75%, a GI50 (MDA-MB-468; Homo sapiens, MDA-MB-468, Breast Cancer, five dose) of 1790 nM and a CC50 (MDA-MB-468; Homo sapiens, MDA-MB-468, Breast Cancer, five dose, read-out: LC50 (the source's name)) of 27.2 µM. The TGI (MDA-MB-468; MDA-MB-468, Breast Cancer, five dose) was 6.77 µM, the GI50 (NCI-H23; NCI-H23) was 8.23 µM and the activity at 10 µM (NCI-H23) was 65%. It also gave a CC50 (NCI-H23; NCI-H23, read-out: LC50) of 48 µM, an IC (TGI) (NCI-H23; NCI-H23, read-out: TGI) of 21.3 µM and a GI50 (U251; U-251) of 2870 nM. It also gave an activity at 10 µM (U251) of 15.5%, a CC50 (U251; U-251, read-out: LC50) of 39.7 µM and an IC (TGI) (U251; U-251, read-out: TGI) of 11.7 µM. The GI50 (T-47D) was 2770 nM, the activity at 10 µM (T-47D) was 29% and the CC50 (T-47D; read-out: LC50) was 61.7 µM. For the same compound, the IC (TGI) (T-47D; read-out: TGI) was 11.8 µM, the GI50 (SK-MEL-2; SK-MEL-2) was 5.87 µM and the activity at 10 µM (SK-MEL-2) was 62.3%. The CC50 (SK-MEL-2; SK-MEL-2, read-out: LC50) was 47.9 µM, the IC (TGI) (SK-MEL-2; SK-MEL-2, read-out: TGI) was 19.5 µM and the GI50 (MALME-3M) was 12.5 µM. It also gave an activity at 10 µM (MALME-3M) of 72.9%, a CC50 (MALME-3M; read-out: LC50) of 67.2 µM and an IC (TGI) (MALME-3M; read-out: TGI) of 29 µM. For the same compound, the GI50 (MCF7; MCF7) was 2570 nM, the activity at 10 µM (MCF7) was 10.5% and the CC50 (MCF7; MCF7, read-out: LC50) was 38.7 µM. It also gave an IC (TGI) (MCF7; MCF7, read-out: TGI) of 10.6 µM, a GI50 (NCI-H322M) of 3.76 µM and an activity at 10 µM (NCI-H322M) of 44.1%. For the same compound, the CC50 (NCI-H322M; read-out: LC50) was 41.3 µM, the IC (TGI) (NCI-H322M; read-out: TGI) was 15.2 µM and the GI50 (LOX IMVI) was 2800 nM. The activity at 10 µM (LOX IMVI) was -5.17%, the CC50 (LOX IMVI; read-out: LC50) was 33.7 µM and the IC (TGI) (LOX IMVI; read-out: TGI) was 10.2 µM. For the same compound, the GI50 (NCI-H226; NCI-H226) was 4.13 µM, the activity at 10 µM (NCI-H226) was 54.5% and the CC50 (NCI-H226; NCI-H226, read-out: LC50) was over 100 µM. It also gave an IC (TGI) (NCI-H226; NCI-H226, read-out: TGI) of 25.4 µM, a GI50 (OVCAR-4; OVCAR-4) of 10.7 µM and an activity at 10 µM (OVCAR-4) of 49.5%. It also gave a CC50 (OVCAR-4; OVCAR-4, read-out: LC50) of 48.5 µM, an IC (TGI) (OVCAR-4; OVCAR-4, read-out: TGI) of 22.8 µM and a GI50 (COLO 205; COLO 205) of 13.9 µM. It also gave an activity at 10 µM (COLO 205) of 90%, a CC50 (COLO 205; COLO 205, read-out: LC50) of 80 µM and an IC (TGI) (COLO 205; COLO 205, read-out: TGI) of 33.3 µM. For the same compound, the GI50 (HOP-62; HOP-62) was 3.94 µM, the activity at 10 µM (HOP-62) was 11.9% and the CC50 (HOP-62; HOP-62, read-out: LC50) was 61.2 µM. For the same compound, the IC (TGI) (HOP-62; HOP-62, read-out: TGI) was 14 µM, the GI50 (BT-549; BT-549) was 2600 nM and the activity at 10 µM (BT-549) was 19.5%. It also gave an IC (TGI) (BT-549; BT-549, read-out: TGI) of 7.28 µM, a GI50 (RPMI-8226; RPMI-8226) of 2290 nM and an activity at 10 µM (RPMI-8226) of 1.4%. For the same compound, the CC50 (RPMI-8226; RPMI-8226, read-out: LC50) was over 100 µM, the IC (TGI) (RPMI-8226; RPMI-8226, read-out: TGI) was over 100 µM and the GI50 (M14; M14) was 9.02 µM. The activity at 10 µM (M14) was 74.5%, the IC (TGI) (M14; M14, read-out: TGI) was 22.9 µM and the GI50 (TK-10; TK-10) was 3.04 µM. The activity at 10 µM (TK-10) was 37.8%, the CC50 (TK-10; TK-10, read-out: LC50) was 35.2 µM and the IC (TGI) (TK-10; TK-10, read-out: TGI) was 11.8 µM. For the same compound, the GI50 (SF-295; SF-295) was 12.7 µM, the activity at 10 µM (SF-295) was 90.4% and the CC50 (SF-295; SF-295, read-out: LC50) was 52.7 µM. For the same compound, the IC (TGI) (SF-295; SF-295, read-out: TGI) was 25.8 µM.

With Cc1ccc(/C=C/C(=O)c2sc(=S)[nH]c2C)cc1 [2j, (E)-1-(4-Methyl-2-Thioxo-2,3-Dihydrothiazol-5-yl)-3-(p-Tolyl)Prop-2-En-1-One] the activity at 10 µM (UACC-257) was 80.1%, the activity at 10 µM (786-0) was 70.7% and the activity at 10 µM (HCC-2998; Homo sapiens) was 77.2%. It also gave an activity at 10 µM (UACC-62) of 59.4%, an activity at 10 µM (HCT-15) of 38.6% and an activity at 10 µM (MOLT-4) of 68.8%. The activity at 10 µM (OVCAR-8) was 17.3%, the activity at 10 µM (MDA-MB-468; Homo sapiens) was 11.8% and the activity at 10 µM (NCI-H23) was 68.5%. For the same compound, the activity at 10 µM (U251) was 60.4%, the activity at 10 µM (T-47D) was 38.3% and the activity at 10 µM (SK-MEL-2) was 89.8%. It also gave an activity at 10 µM (MALME-3M) of 84.7%, an activity at 10 µM (MCF7) of 28.3% and an activity at 10 µM (NCI-H322M) of 62.1%. The activity at 10 µM (LOX IMVI) was 31.2%, the activity at 10 µM (NCI-H226) was 93.8% and the activity at 10 µM (OVCAR-4) was 59.2%. The activity at 10 µM (COLO 205) was 122%, the activity at 10 µM (HOP-62) was 54.1% and the activity at 10 µM (BT-549) was 56.1%. For the same compound, the activity at 10 µM (RPMI-8226) was 18.9%, the activity at 10 µM (M14) was 83% and the activity at 10 µM (TK-10) was 79.8%. It also gave an activity at 10 µM (SF-295) of 83.4%.
